From PMC6327044, “A chemical biology screen identifies a vulnerability of neuroendocrine cancer cells to SQLE inhibition” (Nature Communications, 2019)

Columns and labels:
Test in all cases: cells
Design in all cases: species or system panel of 482 human cancer cell lines; ATPLite luminescence growth inhibition after treatment, nine-point dilution curve, 482 cancer cell lines, 384-well
Conditions in all cases: 72 h, recommended growth medium
[1] = tested on: AMO1_HAEMATOPOIETIC_AND_LYMPHOID_TISSUE
In short: (§1)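 Growth inhibition was measured across a panel of 482 cancer cell lines. Cells were plated at 500 cells per well in recommended growth media in black, tissue culture treated 384-well plates, centrifuged to equilibrate, and incubated 24 h before dosing. Compounds were tested as nine-point dilution curves for 72 h, with viability read by ATPLite luminescence relative to DMSO-treated controls.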

AU565_BREAST = tested on: AU565_BREAST
In short: as §1

GSS_STOMACH = tested on: GSS_STOMACH
In short: as §1

HGC27_STOMACH = tested on: HGC27_STOMACH
In short: as §1

LU24_LUNG = tested on: LU24_LUNG
In short: as §1

[2] = tested on: MINO_HAEMATOPOIETIC_AND_LYMPHOID_TISSUE
In short: as §1

MORCPR_LUNG = tested on: MORCPR_LUNG
In short: as §1

NCIH1568_LUNG = tested on: NCIH1568_LUNG
In short: as §1

NCIH2110_LUNG = tested on: NCIH2110_LUNG
In short: as §1

NCIH2122_LUNG = tested on: NCIH2122_LUNG
In short: as §1

[3] = tested on: OCILY3_HAEMATOPOIETIC_AND_LYMPHOID_TISSUE
In short: as §1

SKNDZ_AUTONOMIC_GANGLIA = tested on: SKNDZ_AUTONOMIC_GANGLIA
In short: as §1

TE11_OESOPHAGUS = tested on: TE11_OESOPHAGUS
In short: as §1

TE4_OESOPHAGUS = tested on: TE4_OESOPHAGUS
In short: as §1

- GI50 (SKNDZ_AUTONOMIC_GANGLIA): 0.012 µM
SMILES: CCN(C/C=C/C#CC(C)(C)C)Cc1cccc(OCc2cc(-c3ccsc3)cs2)c1 [NB-598]
- GI50 [1]: 0.032 µM
- GI50 (AU565_BREAST): 399 µM
- GI50 (GSS_STOMACH): 12.3 µM
- GI50 (HGC27_STOMACH): 14.8 µM
- GI50 (LU24_LUNG): 6.57 µM
- GI50 [2]: 33.4 µM
- GI50 (MORCPR_LUNG): 2.69 µM
- GI50 (NCIH1568_LUNG): 7.98 µM
- GI50 (NCIH2110_LUNG): 36.2 µM
- GI50 (NCIH2122_LUNG): 7.51 µM
- GI50 [3]: 0.0911 µM
- GI50 (TE11_OESOPHAGUS): 8.58 µM
- GI50 (TE4_OESOPHAGUS): 19.5 µM
